Results taken from patent publication US20260217708A1, “FUSED BENZAZEPINE DERIVATIVES FOR USE IN THE TREATMENT OF CANCER AND EPILEPSY” (UCB BIOPHARMA SRL, priority 2023, published 2026).

Columns and labels:
system Xc^− [1] = molecular target: T1, system Xc^− (Homo sapiens, UniProt Q9UPY5); assay: Cystine-induced glutamate release assay; format: cell-based; parameters: endogenous in cells; host or cells: H4 cells; details: H4 cells, sodium-free HEPES buffer, 50 μM L-Cystine, 2 hours, Amplex Red glutamate readout; read-out: pIC50 Cystine-induced glutamate release assay (converted)
T1 sequence (Q9UPY5 1-501): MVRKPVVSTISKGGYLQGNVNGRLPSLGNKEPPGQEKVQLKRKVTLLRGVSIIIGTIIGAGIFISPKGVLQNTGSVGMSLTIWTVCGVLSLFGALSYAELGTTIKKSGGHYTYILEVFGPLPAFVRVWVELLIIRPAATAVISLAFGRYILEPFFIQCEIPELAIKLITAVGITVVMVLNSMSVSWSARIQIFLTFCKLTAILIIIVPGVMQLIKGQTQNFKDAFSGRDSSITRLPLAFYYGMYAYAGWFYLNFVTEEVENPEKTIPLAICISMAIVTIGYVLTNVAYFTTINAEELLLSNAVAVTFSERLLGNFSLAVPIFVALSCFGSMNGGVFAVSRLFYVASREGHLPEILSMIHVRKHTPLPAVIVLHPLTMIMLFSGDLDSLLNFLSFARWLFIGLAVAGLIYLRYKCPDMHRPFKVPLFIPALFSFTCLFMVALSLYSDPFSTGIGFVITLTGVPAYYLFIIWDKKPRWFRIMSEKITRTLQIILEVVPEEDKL
T1 sequence (P08195 1-529 partner): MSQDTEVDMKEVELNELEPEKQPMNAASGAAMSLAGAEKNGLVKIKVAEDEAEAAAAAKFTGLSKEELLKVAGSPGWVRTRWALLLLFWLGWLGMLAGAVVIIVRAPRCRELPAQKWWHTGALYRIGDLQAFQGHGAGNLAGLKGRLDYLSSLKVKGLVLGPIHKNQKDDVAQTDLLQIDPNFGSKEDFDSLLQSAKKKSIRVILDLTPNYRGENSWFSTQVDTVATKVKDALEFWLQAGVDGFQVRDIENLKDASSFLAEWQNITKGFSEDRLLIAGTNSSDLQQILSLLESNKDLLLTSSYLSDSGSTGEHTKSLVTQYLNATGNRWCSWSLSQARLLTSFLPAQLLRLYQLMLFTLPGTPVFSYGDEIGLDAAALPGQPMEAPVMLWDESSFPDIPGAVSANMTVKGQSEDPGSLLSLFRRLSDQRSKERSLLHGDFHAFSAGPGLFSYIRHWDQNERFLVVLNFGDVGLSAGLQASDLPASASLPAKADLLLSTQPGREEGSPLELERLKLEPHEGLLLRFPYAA
Method in brief: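 H4 cells in sodium-free HEPES buffer (pH 7.4), 2 days after plating; glutamate release induced with 50 μM L-cystine plus compound (1% DMSO), 2 h at 37 °C. Supernatant glutamate measured by Amplex Red fluorescence; IC50/pIC50 derived between 1% DMSO and 50 μM erastin controls.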

system Xc^− [2] = molecular target: T1, system Xc^−; assay: [^14C]L-Cystine uptake assay; format: cell-based; parameters: endogenous in cells; host or cells: H4 cells; details: H4 cells, sodium-free HEPES buffer, 0.5 μM L-[14C]Cystine and 4.5 μM L-Cystine, 1 hour at 37° C.; read-out: pIC50 [^14C] L-Cystine uptake assay (converted)
Method in brief: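 H4 cells at 5×10^4 cells/well in sodium-free HEPES buffer were preincubated 15 min with compounds (1% DMSO). Uptake of 0.5 μM [14C]L-cystine plus 4.5 μM unlabelled L-cystine ran 1 hour at 37° C on scintillating plates. IC50 was set between 1% DMSO and 50 μM Erastin controls and expressed as pIC50.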

SMILES	IC50 (system Xc^− [1])	IC50 (system Xc^− [2])
CC1C(=O)N(CC(=O)Nc2ccc(C(F)F)cc2)c2cc(N3CC4(C3)CC(F)(F)C4)nc(F)c2-c2cccnc21 (single isomer, unassigned) [#281, 2-[5-(6,6-difluoro-2-azaspiro[3.3]heptan-2-yl)-3-fluoro-10-methyl-9-oxo-4,8,12-triazatricyclo[9.4.0.0^2,7]pentadeca-1(15),2,4,6,11,13-hexaen-8-yl]-N-[4-(difluoromethyl)phenyl]acetamide]	39.8 to 100 nM	39.8 to 100 nM
CC1C(=O)N(CC(=O)Nc2ccc(C(F)F)cc2)c2cc(N3CC4(CCOC4)C3)nc(F)c2-c2cccnc21 (single isomer, unassigned) [#282, N-[4-(difluoromethyl)phenyl]-2-[3-fluoro-10-methyl-5-(6-oxa-2-azaspiro[3.4]octan-2-yl)-9-oxo-4,8,12-triazatricyclo[9.4.0.0^2,7]pentadeca-1(15),2,4,6,11,13-hexaen-8-yl]acetamide]	15.8 to 39.8 nM	< 15.8 nM
CC1C(=O)N(CC(=O)Nc2ccc(C(F)F)cc2)c2cc(N3CC4(CC4)C3)nc(F)c2-c2cccnc21 (single isomer, unassigned) [#283, 2-[5-(5-azaspiro[2.3]hexan-5-yl)-3-fluoro-10-methyl-9-oxo-4,8,12-triazatricyclo[9.4.0.0^2,7]pentadeca-1(15),2,4,6,11,13-hexaen-8-yl]-N-[4-(difluoromethyl)phenyl]acetamide]	< 15.8 nM	15.8 to 39.8 nM
CC1C(=O)N(CC(=O)Nc2ccc(C(F)F)cc2)c2cc(N3CC4(COC4)C3)nc(F)c2-c2cccnc21 (single isomer, unassigned) [#284, N-[4-(difluoromethyl)phenyl]-2-[3-fluoro-10-methyl-5-(2-oxa-6-azaspiro[3.3]heptan-6-yl)-9-oxo-4,8,12-triazatricyclo[9.4.0.0^2,7]pentadeca-1(15),2,4,6,11,13-hexaen-8-yl]acetamide]	< 15.8 nM	< 15.8 nM
CC1C(=O)N(CC(=O)Nc2ccc(C(F)F)cc2)c2cc(N3CC4(C3)CC4(F)F)nc(F)c2-c2cccnc21 (single isomer, unassigned) [#286, 2-[5-(2,2-difluoro-5-azaspiro[2.3]hexan-5-yl)-3-fluoro-10-methyl-9-oxo-4,8,12-triazatricyclo[9.4.0.0^2,7]pentadeca-1(15),2,4,6,11,13-hexaen-8-yl]-N-[4-(difluoromethyl)phenyl]acetamide]	< 15.8 nM	< 15.8 nM
CC1C(=O)N(CC(=O)Nc2ccc(C(F)F)cc2)c2cc(N3[C@@H]4CCC[C@H]3C4)nc(F)c2-c2cccnc21 (single isomer, unassigned) [#287, 2-[5-(6-azabicyclo[3.1.1]heptan-6-yl)-3-fluoro-10-methyl-9-oxo-4,8,12-triazatricyclo[9.4.0.0^2,7]pentadeca-1(15),2,4,6,11,13-hexaen-8-yl]-N-[4-(difluoromethyl)phenyl]acetamide]	15.8 to 39.8 nM	< 15.8 nM
CC1C(=O)N(CC(=O)Nc2ccc(C(F)F)cc2)c2cc(N3CC(C)(F)C3)nc(F)c2-c2cccnc21 (single isomer, unassigned) [#288, N-[4-(difluoromethyl)phenyl]-2-[3-fluoro-5-(3-fluoro-3-methyl-azetidin-1-yl)-10-methyl-9-oxo-4,8,12-triazatricyclo[9.4.0.0^2,7]pentadeca-1(15),2,4,6,11,13-hexaen-8-yl]acetamide]	< 15.8 nM	< 15.8 nM
C[C@H]1C(=O)N(CC(=O)Nc2ccc(C(F)F)cc2)c2cc(N3CC4C(C3)C4(F)F)nc(F)c2-c2cccnc21 (single isomer, unassigned) [#289, 2-[5-(6,6-difluoro-3-azabicyclo[3.1.0]hexan-3-yl)-3-fluoro-10-methyl-9-oxo-4,8,12-triazatricyclo[9.4.0.0^2,7]pentadeca-1(11),2(7),3,5,12,14-hexaen-8-yl]-N-[4-(difluoromethyl)phenyl]acetamide]	15.8 to 39.8 nM	< 15.8 nM
CC1C(=O)N(CC(=O)Nc2ccc(C(F)F)cc2)c2cc(N3C[C@H]4C[C@@H](C3)C4(F)F)nc(F)c2-c2cccnc21 (single isomer, unassigned) [#290, 2-[5-(6,6-difluoro-3-azabicyclo[3.1.1]heptan-3-yl)-3-fluoro-10-methyl-9-oxo-4,8,12-triazatricyclo[9.4.0.0^2,7]pentadeca-1(11),2(7),3,5,12,14-hexaen-8-yl]-N-[4-(difluoromethyl)phenyl]acetamide]	39.8 to 100 nM	15.8 to 39.8 nM
CC1C(=O)N(CC(=O)Nc2ccc(C(F)F)cc2)c2cc(N3CC(F)(F)C3)nc(F)c2-c2ccc(F)cc21 (single isomer, unassigned) [#291, 2-[3-(3,3-difluoroazetidin-1-yl)-1,9-difluoro-7-methyl-6-oxo-7H-pyrido[4,3-d][3]benzazepin-5-yl]-N-[4-(difluoromethyl)phenyl]acetamide]	< 15.8 nM	15.8 to 39.8 nM
CC1C(=O)N(CC(=O)Nc2ccc(Cl)c(F)c2)c2cc(N3CC(F)(F)C3)ncc2-c2cccnc21 (single isomer, unassigned) [#293, N-(4-chloro-3-fluoro-phenyl)-2-[5-(3,3-difluoroazetidin-1-yl)-10-methyl-9-oxo-4,8,12-triazatricyclo[9.4.0.0^2,7]pentadeca-1(15),2,4,6,11,13-hexaen-8-yl]acetamide]	39.8 to 100 nM	15.8 to 39.8 nM
COc1nccc2c1-c1cccnc1C(C)C(=O)N2CC(=O)Nc1ccc(Cl)c(F)c1 (single isomer, unassigned) [#297, N-(4-chloro-3-fluoro-phenyl)-2-[3-methoxy-10-methyl-9-oxo-4,8,12-triazatricyclo[9.4.0.0^2,7]pentadeca-1(15),2(7),3,5,11,13-hexaen-8-yl]acetamide]	< 15.8 nM	< 15.8 nM
COc1nccc2c1-c1cccnc1C(C)C(=O)N2CC(=O)Nc1ccc(C(F)F)cc1 (single isomer, unassigned) [#298, N-[4-(difluoromethyl)phenyl]-2-[3-methoxy-10-methyl-9-oxo-4,8,12-triazatricyclo[9.4.0.0^2,7]pentadeca-1(15),2(7),3,5,11,13-hexaen-8-yl]acetamide]	< 15.8 nM	< 15.8 nM
COc1cc2c(c(C)n1)-c1cccnc1C(C)C(=O)N2CC(=O)Nc1ccc(C(F)F)cc1 (single isomer, unassigned) [#299, N-[4-(difluoromethyl)phenyl]-2-[5-methoxy-3,10-dimethyl-9-oxo-4,8,12-triazatricyclo[9.4.0.0^2,7]pentadeca-1(15),2(7),3,5,11,13-hexaen-8-yl]acetamide]	< 15.8 nM	< 15.8 nM
COc1cc2c(c(C)n1)-c1cccnc1C(C)C(=O)N2CC(=O)Nc1ccc(Cl)c(F)c1 (single isomer, unassigned) [#300, N-(4-chloro-3-fluoro-phenyl)-2-[5-methoxy-3,10-dimethyl-9-oxo-4,8,12-triazatricyclo[9.4.0.0^2,7]pentadeca-1(15),2(7),3,5,11,13-hexaen-8-yl]acetamide]	< 15.8 nM	< 15.8 nM
Cc1cc2c(c(C(F)F)n1)-c1cccnc1C(C)C(=O)N2CC(=O)Nc1ccc(C(F)F)cc1 (single isomer, unassigned) [#301, 2-[3-(difluoromethyl)-5,10-dimethyl-9-oxo-4,8,12-triazatricyclo[9.4.0.0^2,7]pentadeca-1(11),2(7),3,5,12,14-hexaen-8-yl]-N-[4-(difluoromethyl)phenyl]acetamide]	39.8 to 100 nM	39.8 to 100 nM
Cc1cc2c(c(C(F)F)n1)-c1cccnc1C(C)C(=O)N2CC(=O)Nc1ccc(Cl)c(F)c1 (single isomer, unassigned) [#302, N-(4-chloro-3-fluoro-phenyl)-2-[3-(difluoromethyl)-5,10-dimethyl-9-oxo-4,8,12-triazatricyclo[9.4.0.0^2,7]pentadeca-1(15),2,4,6,11,13-hexaen-8-yl]acetamide]	39.8 to 100 nM	15.8 to 39.8 nM
